For the experiment, the target named is Hsp90 co-chaperone Cdc37 (Homo sapiens) (UniProt Q16543). Briefly: Hsp90/CDC37 chaperone complex stability in cells – cell-based, chemiluminescence western blot, co-immunoprecipitation, mechanism study for selective HSP90 inhibitor project, late-stage follow-up (AID 687006). The note with it: MCF7 cells, Hsp90 co-IP CDC37 western blot, 24 h, stronger effect = higher value. (A western blot detects proteins with antibodies after separation by electrophoresis.)
Chain of Hsp90 co-chaperone Cdc37 (Homo sapiens) (Q16543 whole entry, looked up): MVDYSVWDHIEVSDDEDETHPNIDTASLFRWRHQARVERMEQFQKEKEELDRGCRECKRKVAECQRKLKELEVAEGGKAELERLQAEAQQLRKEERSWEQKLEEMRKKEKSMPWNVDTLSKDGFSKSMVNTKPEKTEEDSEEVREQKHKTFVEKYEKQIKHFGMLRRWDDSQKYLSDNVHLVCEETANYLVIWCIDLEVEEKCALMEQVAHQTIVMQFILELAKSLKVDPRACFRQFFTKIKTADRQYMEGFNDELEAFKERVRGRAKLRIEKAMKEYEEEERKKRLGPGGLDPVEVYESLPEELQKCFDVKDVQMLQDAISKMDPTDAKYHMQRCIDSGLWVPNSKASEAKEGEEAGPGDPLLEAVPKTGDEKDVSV

Structures are written as SMILES. Activity calls are given as the source filed them.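 Rule for the calls: active = over 50% breakup of the Hsp90 and CDC37 protein complex, measured by pull-down and western blot; inactive = complex breakup under 10%.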 A value given as a limit tells only on which side of the number the result lay.

For `CCCCOc1cccc(NC(=O)c2coc(=O)c(Br)c2)c1`, the complex disruption (high dose (five times the growth IC50) 114 µM, low dose (half the growth IC50) 11.4 µM) is < 10% (inactive).
For `COc1ccc(NC(=O)c2ccc(NC(=O)c3coc(=O)c(Br)c3)cc2)cc1`, the complex disruption (high dose (five times the growth IC50) 60.5 µM, low dose (half the growth IC50) 6.1 µM) is over 50%.
On to `O=C(NCCc1ccc(F)cc1)c1coc(=O)c(Br)c1`, for which the complex disruption (high dose (five times the growth IC50) 10.5 µM, low dose (half the growth IC50) 1.1 µM) was < 10% (inactive).
Turning to `CC(NC(=O)c1coc(=O)c(Br)c1)C1C2CCC3CC(C2)CC31` (centres undefined), the complex disruption (high dose (five times the growth IC50) 9 µM, low dose (half the growth IC50) 0.9 µM) was < 10% (inactive).
As to `O=C(Nc1ccccc1I)c1coc(=O)c(Br)c1`, where the note is “high dose (five times the growth IC50) 147 µM, low dose (half the growth IC50) 14.7 µM”, the complex disruption is < 10% (inactive).
For the compound `Cc1cccc(NC(=O)c2coc(=O)c(Br)c2)n1`, the complex disruption (high dose (five times the growth IC50) 136.5 µM, low dose (half the growth IC50) 13.7 µM) was < 10% (inactive).
For the compound `O=C(NCc1cccnc1)c1coc(=O)c(Br)c1`, the complex disruption (high dose (five times the growth IC50) 17.5 µM, low dose (half the growth IC50) 1.8 µM) was < 10% (inactive).
On to `O=C(NCc1ccco1)c1coc(=O)c(Br)c1`, for which the complex disruption (high dose (five times the growth IC50) 24 µM, low dose (half the growth IC50) 2.4 µM) is < 10% (inactive).
On to `CC(=O)c1ccc(NC(=O)c2coc(=O)c(Br)c2)cc1`, for which, where the note is “high dose (five times the growth IC50) 53.5 µM, low dose (half the growth IC50) 5.4 µM”, the complex disruption is over 50%.
For `CCCCCCCCOc1ccc(NC(=O)c2coc(=O)c(Br)c2)cc1`, the complex disruption (high dose (five times the growth IC50) 64.5 µM, low dose (half the growth IC50) 6.5 µM) was over 50%.
Regarding `Cc1cc(NC(=O)c2coc(=O)c(Br)c2)ccc1C(C)C`, the complex disruption (high dose (five times the growth IC50) 44.5 µM, low dose (half the growth IC50) 4.5 µM) is < 10% (inactive).
`O=C(Nc1ccc(F)cc1)c1coc(=O)c(Br)c1`: under “high dose (five times the growth IC50) 17 µM, low dose (half the growth IC50) 1.7 µM”, the complex disruption was < 10% (inactive).
With `COc1ccc(NC(=O)c2coc(=O)c(Br)c2)cc1`, under “high dose (five times the growth IC50) 12 µM, low dose (half the growth IC50) 1.2 µM”, the complex disruption is over 50%.
As to `CC(C)CNC(=O)c1coc(=O)c(Br)c1`, for the setting “high dose (five times the growth IC50) 37.5 µM, low dose (half the growth IC50) 3.8 µM”, the complex disruption was over 50%.

These data come from PubChem BioAssay AID687006 (The Scripps Research Institute Molecular Screening Center, 2013).
